Test results taken from the supplement of paper PMC11451515.

Test system: P12-Ichikawa
Experiment: cell viability relative to DMSO control; higher = less cytotoxic
Conditions: 48 h
In short: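 Before seeding, each leukemia line was adapted for at least four passages in each medium. NOMO1 or SEM cells (500 cells/well) and P12-Ichikawa cells (1000 cells/well) went into 1536-well plates at 5 μl, then received library compounds in DMSO by pin dosing across 11 threefold concentrations, 47 μM to 0.79 nM. Readout was CellTiter-Glo One luminescence after 48 h at 37°C, and viability is given as a per-plate percentage of DMSO wells, with cell-free wells as background.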

[1] = HPLM + 10% dialyzed FBS, 0.000781 µM
[2] = HPLM + 10% dialyzed FBS, 0.00234 µM
[3] = HPLM + 10% dialyzed FBS, 0.00702 µM
[4] = HPLM + 10% dialyzed FBS, 0.0211 µM
[5] = HPLM + 10% dialyzed FBS, 0.0632 µM
[6] = HPLM + 10% dialyzed FBS, 0.19 µM
[7] = HPLM + 10% dialyzed FBS, 0.569 µM
[8] = HPLM + 10% dialyzed FBS, 1.71 µM
[9] = HPLM + 10% dialyzed FBS, 5.12 µM
[10] = HPLM + 10% dialyzed FBS, 15.4 µM
[11] = HPLM + 10% dialyzed FBS, 46.1 µM
[12] = RPMI 5 mM glucose + 10% FBS, 0.000781 µM
[13] = RPMI 5 mM glucose + 10% FBS, 0.00234 µM
[14] = RPMI 5 mM glucose + 10% FBS, 0.00702 µM
[15] = RPMI 5 mM glucose + 10% FBS, 0.0211 µM
[16] = RPMI 5 mM glucose + 10% FBS, 0.0632 µM
[17] = RPMI 5 mM glucose + 10% FBS, 0.19 µM
[18] = RPMI 5 mM glucose + 10% FBS, 0.569 µM
[19] = RPMI 5 mM glucose + 10% FBS, 1.71 µM
[20] = RPMI 5 mM glucose + 10% FBS, 5.12 µM
[21] = RPMI 5 mM glucose + 10% FBS, 15.4 µM
[22] = RPMI 5 mM glucose + 10% FBS, 46.1 µM
[23] = RPMI 5 mM glucose + 10% dialyzed FBS, 0.000781 µM
[24] = RPMI 5 mM glucose + 10% dialyzed FBS, 0.00234 µM
[25] = RPMI 5 mM glucose + 10% dialyzed FBS, 0.00702 µM
[26] = RPMI 5 mM glucose + 10% dialyzed FBS, 0.0211 µM
[27] = RPMI 5 mM glucose + 10% dialyzed FBS, 0.0632 µM
[28] = RPMI 5 mM glucose + 10% dialyzed FBS, 0.19 µM
[29] = RPMI 5 mM glucose + 10% dialyzed FBS, 0.569 µM
[30] = RPMI 5 mM glucose + 10% dialyzed FBS, 1.71 µM
[31] = RPMI 5 mM glucose + 10% dialyzed FBS, 5.12 µM
[32] = RPMI 5 mM glucose + 10% dialyzed FBS, 15.4 µM
[33] = RPMI 5 mM glucose + 10% dialyzed FBS, 46.1 µM

Row | SMILES | cell viability [1] [%] | cell viability [2] [%] | cell viability [3] [%] | cell viability [4] [%] | cell viability [5] [%] | cell viability [6] [%] | cell viability [7] [%] | cell viability [8] [%] | cell viability [9] [%] | cell viability [10] [%] | cell viability [11] [%] | cell viability [12] [%] | cell viability [13] [%] | cell viability [14] [%] | cell viability [15] [%] | cell viability [16] [%] | cell viability [17] [%] | cell viability [18] [%] | cell viability [19] [%] | cell viability [20] [%] | cell viability [21] [%] | cell viability [22] [%] | cell viability [23] [%] | cell viability [24] [%] | cell viability [25] [%] | cell viability [26] [%] | cell viability [27] [%] | cell viability [28] [%] | cell viability [29] [%] | cell viability [30] [%] | cell viability [31] [%] | cell viability [32] [%] | cell viability [33] [%]
1 | CC#CCn1c(N2CCC[C@@H](N)C2)nc2c1c(=O)n(Cc1nc(C)c3ccccc3n1)c(=O)n2C | 104 | 104 | 99.3 | 89.2 | 108 | 109 | 104 | 97.8 | 103 | 99.7 | 88.5 | 94.9 | 102 | 102 | 85.9 | 96.8 | 94.6 | 96.1 | 93.9 | 91.2 | 87.4 | 94.9 | 104 | 102 | 98.4 | 83.6 | 100 | 109 | 101 | 95.9 | 97.6 | 85.1 | 85.9
2 | CC(N[C@H]1CCCC[C@@H]1NC(=O)c1ccc(Cl)cc1)c1cccc2ccccc12 (stereo partly specified) | 107 | 109 | 114 | 110 | 113 | 115 | 111 | 116 | 114 | 39.7 | 28.1 | 117 | 119 | 113 | 118 | 117 | 115 | 119 | 111 | 102 | 30.9 | 35.2 | 105 | 105 | 109 | 104 | 102 | 113 | 108 | 110 | 106 | 30.6 | 28.7
